Data taken from the NIST ThermoML archive (doi:10.1016/j.tca.2006.10.025).
Numbers after ± are expanded uncertainties.

What was measured:
[1] = molar heat capacity at constant pressure; xn = mol fraction of the nth substance listed; conditions: 303.15 K, 101 kPa, Liquid, Small sample (50 mg) DSC
[2] = excess molar enthalpy (molar enthalpy of mixing); xn = mol fraction of the nth substance listed; conditions: 303.15 K, 101 kPa, Liquid, Flow calorimetry
[3] = 303.15 K; 101.33 kPa; Liquid; Vibrating tube method
[4] = molar heat capacity at constant pressure; conditions: 101.33 kPa, Liquid, Small sample (50 mg) DSC

C[S+](C)[O-] [dimethyl sulfoxide] + CO
Conditions	excess molar enthalpy [kcal/mol]	molar heat capacity at constant pressure [J/K/mol]
[1], x1 = 0.0308	–	84 ± 1.3
[1], x1 = 0.061	–	85.8 ± 1.3
[1], x1 = 0.1103	–	88.3 ± 1.4
[1], x1 = 0.197	–	93.9 ± 1.5
[1], x1 = 0.2818	–	97.8 ± 1.5
[1], x1 = 0.3571	–	102.3 ± 1.6
[1], x1 = 0.4676	–	109.7 ± 1.7
[1], x1 = 0.5886	–	116.1 ± 1.8
[1], x1 = 0.6833	–	124.6 ± 1.9
[1], x1 = 0.8398	–	137.5 ± 2.1
[1], x1 = 0.9068	–	142.5 ± 2.2
[1], x1 = 0.923	–	144.6 ± 2.2
[2], x1 = 0.0176	0.00191 ± 0.000239	–
[2], x1 = 0.0233	0.00215 ± 0.000239	–
[2], x1 = 0.0455	0.000717 ± 0.000239	–
[2], x1 = 0.0667	-0.00263 ± 0.000239	–
[2], x1 = 0.087	-0.00765 ± 0.000478	–
[2], x1 = 0.1251	-0.0194 ± 0.000478	–
[2], x1 = 0.1601	-0.0318 ± 0.000717	–
[2], x1 = 0.2223	-0.0543 ± 0.000956	–
[2], x1 = 0.276	-0.0712 ± 0.000956	–
[2], x1 = 0.3639	-0.0908 ± 0.0012	–
[2], x1 = 0.4619	-0.102 ± 0.00143	–
[2], x1 = 0.5336	-0.103 ± 0.00143	–
[2], x1 = 0.6318	-0.0985 ± 0.00143	–
[2], x1 = 0.6959	-0.0891 ± 0.0012	–
[2], x1 = 0.7744	-0.0758 ± 0.000956	–
[2], x1 = 0.8207	-0.0605 ± 0.000956	–
[2], x1 = 0.8728	-0.0442 ± 0.000717	–
[2], x1 = 0.9321	-0.0232 ± 0.000478	–

CCO [ethanol]
Conditions	mass density [kg/m3]
[3]	780.79 ± 0.16

[4]
Conditions	molar heat capacity at constant pressure [J/K/mol]
288.15 K	108.8 ± 1.7
293.15 K	111 ± 1.7
298.15 K	113.5 ± 1.8
303.15 K	115.7 ± 1.8
308.15 K	118.6 ± 1.8
313.15 K	121.6 ± 1.9
318.15 K	125.1 ± 1.9
323.15 K	128.2 ± 2

CCCCCCO [hexan-1-ol]
Conditions	mass density [kg/m3]
[3]	811.39 ± 0.31

[4]
Conditions	molar heat capacity at constant pressure [J/K/mol]
288.15 K	231.6 ± 3.6
293.15 K	237.5 ± 3.7
298.15 K	241.3 ± 3.7
303.15 K	246 ± 3.8
308.15 K	251 ± 3.9
313.15 K	256.2 ± 4
318.15 K	262.5 ± 4.1
323.15 K	268.9 ± 4.2

CCCCCCO [hexan-1-ol] + C[S+](C)[O-]
Conditions	excess molar enthalpy [kcal/mol]	molar heat capacity at constant pressure [J/K/mol]
[1], x2 = 0.1102	–	239.9 ± 3.7
[1], x2 = 0.1949	–	231.7 ± 3.6
[1], x2 = 0.2888	–	222.5 ± 3.4
[1], x2 = 0.3759	–	216.5 ± 3.4
[1], x2 = 0.4388	–	211.5 ± 3.3
[1], x2 = 0.535	–	199.2 ± 3.1
[1], x2 = 0.5365	–	199.4 ± 3.1
[1], x2 = 0.6311	–	190.4 ± 3
[1], x2 = 0.7339	–	181.8 ± 2.8
[1], x2 = 0.8062	–	171 ± 2.6
[1], x2 = 0.8704	–	164.7 ± 2.6
[1], x2 = 0.9359	–	158.8 ± 2.5
[2], x2 = 0.0682	0.0863 ± 0.00167	–
[2], x2 = 0.1277	0.153 ± 0.00215	–
[2], x2 = 0.1801	0.202 ± 0.00263	–
[2], x2 = 0.2265	0.241 ± 0.00311	–
[2], x2 = 0.3053	0.286 ± 0.00359	–
[2], x2 = 0.3694	0.31 ± 0.00382	–
[2], x2 = 0.4677	0.325 ± 0.00406	–
[2], x2 = 0.5394	0.326 ± 0.00406	–
[2], x2 = 0.6374	0.307 ± 0.00382	–
[2], x2 = 0.7251	0.278 ± 0.00359	–
[2], x2 = 0.7786	0.248 ± 0.00311	–
[2], x2 = 0.8406	0.207 ± 0.00263	–
[2], x2 = 0.8755	0.178 ± 0.00239	–
[2], x2 = 0.9134	0.134 ± 0.00215	–
[2], x2 = 0.9336	0.109 ± 0.00191	–
[2], x2 = 0.9547	0.0791 ± 0.00191	–
[2], x2 = 0.9768	0.0433 ± 0.00167	–

CO [methanol]
Conditions	mass density [kg/m3]
[3]	781.81 ± 0.16

[4]
Conditions	molar heat capacity at constant pressure [J/K/mol]
288.15 K	78.1 ± 1.2
293.15 K	79.3 ± 1.2
298.15 K	81 ± 1.3
303.15 K	82.2 ± 1.3
308.15 K	83.4 ± 1.3
313.15 K	85.6 ± 1.3
318.15 K	87.5 ± 1.4
323.15 K	89.5 ± 1.4

CCCCCCCCO [octan-1-ol]
Conditions	mass density [kg/m3]
[3]	818.24 ± 0.18

[4]
Conditions	molar heat capacity at constant pressure [J/K/mol]
288.15 K	294.2 ± 4.6
293.15 K	300.3 ± 4.7
298.15 K	304.4 ± 4.7
303.15 K	309.2 ± 4.8
308.15 K	314.4 ± 4.9
313.15 K	319.5 ± 5
318.15 K	326.2 ± 5.1
323.15 K	332.7 ± 5.2

CCCCCCCCO [octan-1-ol] + C[S+](C)[O-]
Conditions	excess molar enthalpy [kcal/mol]	molar heat capacity at constant pressure [J/K/mol]
[1], x2 = 0.0953	–	296.5 ± 4.6
[1], x2 = 0.1847	–	284.2 ± 4.4
[1], x2 = 0.3137	–	264.7 ± 4.1
[1], x2 = 0.3478	–	256.2 ± 4
[1], x2 = 0.4629	–	241.9 ± 3.7
[1], x2 = 0.5855	–	221.6 ± 3.4
[1], x2 = 0.6299	–	215.1 ± 3.3
[1], x2 = 0.7302	–	200.6 ± 3.1
[1], x2 = 0.7656	–	193.2 ± 3
[1], x2 = 0.842	–	182.1 ± 2.8
[1], x2 = 0.8956	–	173.1 ± 2.7
[1], x2 = 0.9603	–	162.4 ± 2.5
[2], x2 = 0.0847	0.112 ± 0.00191	–
[2], x2 = 0.1562	0.195 ± 0.00263	–
[2], x2 = 0.2173	0.257 ± 0.00335	–
[2], x2 = 0.2702	0.29 ± 0.00359	–
[2], x2 = 0.3571	0.331 ± 0.00406	–
[2], x2 = 0.4254	0.35 ± 0.0043	–
[2], x2 = 0.5262	0.354 ± 0.00454	–
[2], x2 = 0.5968	0.351 ± 0.0043	–
[2], x2 = 0.6896	0.332 ± 0.00406	–
[2], x2 = 0.7692	0.304 ± 0.00382	–
[2], x2 = 0.8163	0.273 ± 0.00359	–
[2], x2 = 0.8696	0.228 ± 0.00311	–
[2], x2 = 0.8988	0.195 ± 0.00287	–
[2], x2 = 0.9302	0.15 ± 0.00239	–
[2], x2 = 0.9467	0.121 ± 0.00239	–
[2], x2 = 0.9638	0.0868 ± 0.00239	–
[2], x2 = 0.9816	0.0468 ± 0.00239	–

CCCO [propan-1-ol]
Conditions	mass density [kg/m3]
[3]	795.48 ± 0.15

[4]
Conditions	molar heat capacity at constant pressure [J/K/mol]
288.15 K	139 ± 2.2
293.15 K	142.3 ± 2.2
298.15 K	144.9 ± 2.2
303.15 K	148.3 ± 2.3
308.15 K	151 ± 2.3
313.15 K	153.7 ± 2.4
318.15 K	157.1 ± 2.4
323.15 K	160.1 ± 2.5
